# According to ChEMBL document CHEMBL4376834, “Discovery of 4H-Chromen-4-one Derivatives as a New Class of Selective Rho Kinase (ROCK) Inhibitors, which Showed Potent Activity in ex Vivo Diabetic Retinopathy Models” (J Med Chem, 2019):
# Legend:
# [1] = Inhibition of human PKA using Kemptide as substrate incubated for 40 mins in presence of [gamma-33P]ATP by radiometric scintillation counting analysis
# [2] = Apparent permeability in dog MDCK cells incubated for 90 mins by LC-MS analysis; assay type: ADME, cell-based, Canis lupus familiaris
# [3] = Protein binding in monkey plasma at 1 uM incubated incubated for 5 hrs under shaking conditions by LC-MS analysis; assay type: ADME, cell-free, Macaca mulatta; settings: rhesus monkey, read-out: PPB (converted)
# [4] = target: Serine/threonine-protein kinase BRSK2 (Homo sapiens, UniProt Q8IWQ3); assay: Inhibition of recombinant human BRSK2 (2 to end residues) using KKLNRTLSFAEPG substrate incubated for 40 mins in presence of [gamma-33ATP] by radiometric scintillation counting analysis
# [5] = target: Cyclin-dependent kinase 2/cyclin E1 (Homo sapiens, UniProt P24941); assay: Inhibition of recombinant full length human CDK2/CyclinE using Histone H1 as substrate incubated for 40 mins in presence of [gamma-33ATP] by radiometric scintillation counting analysis; assay type: protein-complex assay
# [6] = target: Cyclin-dependent kinase-like 1 (Homo sapiens, UniProt Q00532); assay: Inhibition of recombinant human CDKL1 (1 to 303 residues) using RRRFRPASPLRGP as substrate incubated for 120 mins in presence of [gamma-33ATP] by radiometric scintillation counting analysis
# [7] = target: Cyclin-dependent kinase-like 4 (Homo sapiens, UniProt Q5MAI5); assay: Inhibition of recombinant full length human CDKL4 in presence of [gamma-33ATP] by radiometric scintillation counting analysis
# [8] = target: Serine/threonine-protein kinase Chk2 (Homo sapiens, UniProt O96017, R145W); assay: Inhibition of recombinant human CHK2 R145W mutant (5 to end residues) using KKKVSRSGLYRSP as substrate incubated for 40 mins in presence of [gamma-33ATP] by radiometric scintillation counting analysis
# [9] = target: Casein kinase I isoform gamma-2 (Homo sapiens, UniProt P78368); assay: Inhibition of recombinant human CK1gamma2 (18 to end residues) using KRRRALS(p)VAS as substrate incubated for 40 mins in presence of [gamma-33ATP] by radiometric scintillation counting analysis
# [10] = target: Mast/stem cell growth factor receptor Kit (Homo sapiens, UniProt P10721, D816H); assay: Inhibition of recombinant human C-Kit D816H mutant (544 to end residues) using poly(Glu, Tyr) 4:1 as substrate incubated 40 mins in presence of [gamma-33ATP] by radiometric scintillation counting analysis
# [11] = target: RAF proto-oncogene serine/threonine-protein kinase (Homo sapiens, UniProt P04049, Y340D/Y341D); assay: Inhibition of recombinant human C-Raf Y340D/Y341D double mutant (306 to end residues) using poly(Glu, Tyr) 4:1 as substrate incubated 40 mins in presence of [gamma-33ATP] by radiometric scintillation counting analysis
# [12] = target: Proto-oncogene tyrosine-protein kinase Src (Homo sapiens, UniProt P12931); assay: Inhibition of recombinant human C-Src using […] as substrate incubated 40 mins in presence of [gamma-33ATP] by radiometric scintillation counting analysis
# [13] = target: Protein kinase C theta type (Homo sapiens, UniProt Q04759); assay: Inhibition of recombinant full length human PKCtheta using histone H1 as substrate incubated for 40 mins in presence of [gamma33P]ATP by radiometric scintillation counting analysis
# Myosin-IIIb = Myosin-IIIb (Homo sapiens, UniProt Q8WXR4); assay: Inhibition of recombinant human MYO3B (1 to 326 residues) using RLGRDKYKTLRQI as substrate measured after 40 mins in presence of [gamma33P]ATP by radiometric scintillation counting analysis
# FKBP12A/mTOR = FKBP12A/mTOR (Homo sapiens, UniProt P42345+P62942); assay: Inhibition of recombinant full length human mTOR/FKBP12 measured after 40 mins in presence of [gamma33P]ATP by radiometric scintillation counting analysis; assay type: protein-complex assay
# [14] = target: Serine/threonine-protein kinase pim-2 (Homo sapiens, UniProt Q9P1W9); assay: Inhibition of recombinant human Pim2 (2 to end residues) using RSRHSSYPAGT as substrate incubated for 40 mins in presence of [gamma33P]ATP by radiometric scintillation counting analysis
# [15] = target: Epidermal growth factor receptor (Homo sapiens, UniProt P00533); assay: Inhibition of recombinant human EGFR (696 to end residues) using poly(Glu, Tyr) 4:1 as substrate after 40 mins in presence of [gamma-33ATP] by radiometric scintillation counting analysis
# [16] = target: Epidermal growth factor receptor (Homo sapiens, UniProt P00533, L858R/T790M); assay: Inhibition of recombinant human EGFR T790M/L858R double mutant (696 to end residues) using poly(Glu, Tyr) 4:1 as substrate after 40 mins in presence of [gamma-33ATP] by radiometric scintillation counting analysis
# [17] = target: Vascular endothelial growth factor receptor 1 (Homo sapiens, UniProt P17948); assay: Inhibition of recombinant human FLT1 (783 to end residues) using KKKSPGEYVNIEF as substrate after 40 mins in presence of [gamma-33ATP] by radiometric scintillation counting analysis
# [18] = target: Glycogen synthase kinase-3 alpha (Homo sapiens, UniProt P49840); assay: Inhibition of human GSK-3alpha S449A mutant (2 to end residues) using YRRAAVPPSPSLSR as substrate after 40 mins by [gamma-33ATP] radiometric scintillation counting analysis
# [19] = target: Tyrosine-protein kinase Lck (Homo sapiens, UniProt P06239); assay: Inhibition of recombinant full length activated human LCK using […] as substrate after 40 mins in presence of [gamma-33ATP] by radiometric scintillation counting analysis
# [20] = target: Mitogen-activated protein kinase kinase kinase 3 (Homo sapiens, UniProt Q99759); assay: Inhibition of recombinant full length human MEKK3 using MBP as substrate incubated for 120 mins in presence of [gamma-33ATP by radiometric scintillation counting analysis
# [21] = Inhibition of recombinant human MER H628Q/R794A double mutant (557 to 882 residues) using KKLNRTLSFAEPG as substrate incubated for 40 mins in presence of [gamma-33ATP by radiometric scintillation counting analysis
# [22] = target: Serine/threonine-protein kinase PRP4 homolog (Homo sapiens, UniProt Q13523); assay: Inhibition of recombinant human PRP4 (663 to end residues) using casein as substrate incubated for 40 mins in presence of [gamma33P]ATP by radiometric scintillation counting analysis
# [23] = target: Ribosomal protein S6 kinase alpha-2 (Homo sapiens, UniProt Q15349); assay: Inhibition of recombinant full length human Rsk3 using KKKNRTLSVA as substrate incubated for 40 mins in presence of [gamma33P]ATP by radiometric scintillation counting analysis
# [24] = target: Serine/threonine-protein kinase TAO3 (Homo sapiens, UniProt Q9H2K8); assay: Inhibition of recombinant human TAO3 N47S mutant (1 to 411 residues) using myelin basic protein as substrate incubated for 40 mins in presence of [gamma33P]ATP by radiometric scintillation counting analysis
# [25] = target: Phosphatidylinositol 4-phosphate 3-kinase C2 domain-containing subunit alpha (Homo sapiens, UniProt O00443); assay: Inhibition of human PI3KC2
# Sequence of Phosphatidylinositol 4-phosphate 3-kinase C2 domain-containing subunit alpha (O00443 whole entry, the tested form may be a part): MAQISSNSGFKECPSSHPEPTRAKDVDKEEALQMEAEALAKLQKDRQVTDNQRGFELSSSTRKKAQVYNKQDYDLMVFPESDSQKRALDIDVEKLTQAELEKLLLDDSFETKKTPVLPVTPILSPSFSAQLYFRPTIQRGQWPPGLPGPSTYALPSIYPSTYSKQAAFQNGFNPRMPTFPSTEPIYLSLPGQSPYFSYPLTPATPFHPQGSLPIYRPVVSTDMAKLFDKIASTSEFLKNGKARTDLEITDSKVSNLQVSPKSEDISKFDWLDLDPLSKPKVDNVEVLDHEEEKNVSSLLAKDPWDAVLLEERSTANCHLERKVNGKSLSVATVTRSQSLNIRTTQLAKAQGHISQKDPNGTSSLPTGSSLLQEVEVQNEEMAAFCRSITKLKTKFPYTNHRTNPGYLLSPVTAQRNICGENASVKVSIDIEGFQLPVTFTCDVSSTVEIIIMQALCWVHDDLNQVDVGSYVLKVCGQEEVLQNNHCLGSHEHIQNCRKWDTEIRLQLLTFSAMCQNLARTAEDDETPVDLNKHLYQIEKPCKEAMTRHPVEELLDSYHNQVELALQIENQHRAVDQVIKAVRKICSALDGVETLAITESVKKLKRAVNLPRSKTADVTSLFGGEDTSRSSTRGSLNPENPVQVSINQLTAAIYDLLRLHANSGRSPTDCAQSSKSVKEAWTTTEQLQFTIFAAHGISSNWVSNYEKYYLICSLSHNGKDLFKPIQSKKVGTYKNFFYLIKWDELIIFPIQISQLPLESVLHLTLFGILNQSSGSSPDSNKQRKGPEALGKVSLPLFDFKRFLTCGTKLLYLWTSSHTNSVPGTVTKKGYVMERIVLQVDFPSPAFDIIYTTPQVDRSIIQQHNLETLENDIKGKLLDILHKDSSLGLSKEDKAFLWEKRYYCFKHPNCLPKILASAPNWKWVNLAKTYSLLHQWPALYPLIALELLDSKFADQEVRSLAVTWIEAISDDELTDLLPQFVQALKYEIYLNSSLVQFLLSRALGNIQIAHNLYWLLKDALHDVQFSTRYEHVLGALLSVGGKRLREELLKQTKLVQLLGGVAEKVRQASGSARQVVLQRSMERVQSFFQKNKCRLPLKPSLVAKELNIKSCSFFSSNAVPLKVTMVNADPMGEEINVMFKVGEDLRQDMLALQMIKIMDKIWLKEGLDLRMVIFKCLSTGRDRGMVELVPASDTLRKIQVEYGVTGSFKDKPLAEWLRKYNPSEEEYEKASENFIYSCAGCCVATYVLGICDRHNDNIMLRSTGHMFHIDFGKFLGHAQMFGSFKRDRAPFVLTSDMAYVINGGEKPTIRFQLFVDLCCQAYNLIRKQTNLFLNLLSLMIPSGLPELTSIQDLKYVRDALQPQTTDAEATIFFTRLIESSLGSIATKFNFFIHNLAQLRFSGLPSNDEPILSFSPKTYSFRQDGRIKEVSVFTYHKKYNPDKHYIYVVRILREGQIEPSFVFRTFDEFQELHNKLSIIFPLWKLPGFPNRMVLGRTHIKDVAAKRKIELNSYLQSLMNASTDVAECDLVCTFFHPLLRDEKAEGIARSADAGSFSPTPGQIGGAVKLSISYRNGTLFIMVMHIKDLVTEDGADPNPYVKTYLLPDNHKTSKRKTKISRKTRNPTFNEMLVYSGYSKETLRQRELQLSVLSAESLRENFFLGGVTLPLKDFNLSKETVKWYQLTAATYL
# Sequence of Cyclin-dependent kinase-like 4 (Q5MAI5 whole entry): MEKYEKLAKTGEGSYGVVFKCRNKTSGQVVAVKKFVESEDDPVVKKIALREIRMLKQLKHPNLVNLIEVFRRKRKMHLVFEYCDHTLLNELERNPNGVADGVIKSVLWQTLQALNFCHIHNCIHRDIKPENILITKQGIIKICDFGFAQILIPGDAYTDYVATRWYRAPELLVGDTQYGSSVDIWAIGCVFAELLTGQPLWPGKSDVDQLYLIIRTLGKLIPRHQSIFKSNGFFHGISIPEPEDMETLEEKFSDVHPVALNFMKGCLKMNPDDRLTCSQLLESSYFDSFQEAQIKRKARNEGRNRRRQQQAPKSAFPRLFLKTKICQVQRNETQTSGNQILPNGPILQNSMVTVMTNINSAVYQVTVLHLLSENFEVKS
# Sequence of Serine/threonine-protein kinase BRSK2 (Q8IWQ3 whole entry): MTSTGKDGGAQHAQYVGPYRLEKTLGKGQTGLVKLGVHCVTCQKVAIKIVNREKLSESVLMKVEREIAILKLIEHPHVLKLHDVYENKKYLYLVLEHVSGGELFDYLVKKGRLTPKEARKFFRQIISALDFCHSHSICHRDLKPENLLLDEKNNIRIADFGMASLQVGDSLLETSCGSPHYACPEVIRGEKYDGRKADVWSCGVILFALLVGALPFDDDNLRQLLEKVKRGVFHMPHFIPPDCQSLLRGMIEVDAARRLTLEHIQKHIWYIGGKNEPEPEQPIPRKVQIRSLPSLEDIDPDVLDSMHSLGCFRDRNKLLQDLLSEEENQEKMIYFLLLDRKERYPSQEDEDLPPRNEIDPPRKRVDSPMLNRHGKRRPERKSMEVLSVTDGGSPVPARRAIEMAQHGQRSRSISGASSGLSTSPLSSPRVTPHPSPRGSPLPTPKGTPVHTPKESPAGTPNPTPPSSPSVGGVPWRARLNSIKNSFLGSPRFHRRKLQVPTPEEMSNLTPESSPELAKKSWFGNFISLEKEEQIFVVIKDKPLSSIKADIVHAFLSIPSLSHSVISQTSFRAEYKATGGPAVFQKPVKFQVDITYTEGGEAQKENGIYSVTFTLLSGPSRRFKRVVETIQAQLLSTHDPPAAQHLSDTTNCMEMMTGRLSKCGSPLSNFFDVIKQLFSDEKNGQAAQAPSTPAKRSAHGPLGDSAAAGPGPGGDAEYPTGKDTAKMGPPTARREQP
# Sequence of Serine/threonine-protein kinase pim-2 (Q9P1W9 whole entry): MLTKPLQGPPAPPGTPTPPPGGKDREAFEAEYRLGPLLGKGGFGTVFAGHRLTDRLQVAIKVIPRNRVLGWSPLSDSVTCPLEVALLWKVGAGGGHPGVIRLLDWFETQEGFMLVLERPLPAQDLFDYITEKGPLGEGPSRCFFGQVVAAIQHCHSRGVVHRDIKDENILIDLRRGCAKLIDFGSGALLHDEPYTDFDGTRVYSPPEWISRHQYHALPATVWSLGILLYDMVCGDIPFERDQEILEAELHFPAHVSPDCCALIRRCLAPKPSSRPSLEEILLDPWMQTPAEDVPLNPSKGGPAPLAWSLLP
# Sequence of Epidermal growth factor receptor (Homo sapiens, UniProt P00533) (P00533 whole entry): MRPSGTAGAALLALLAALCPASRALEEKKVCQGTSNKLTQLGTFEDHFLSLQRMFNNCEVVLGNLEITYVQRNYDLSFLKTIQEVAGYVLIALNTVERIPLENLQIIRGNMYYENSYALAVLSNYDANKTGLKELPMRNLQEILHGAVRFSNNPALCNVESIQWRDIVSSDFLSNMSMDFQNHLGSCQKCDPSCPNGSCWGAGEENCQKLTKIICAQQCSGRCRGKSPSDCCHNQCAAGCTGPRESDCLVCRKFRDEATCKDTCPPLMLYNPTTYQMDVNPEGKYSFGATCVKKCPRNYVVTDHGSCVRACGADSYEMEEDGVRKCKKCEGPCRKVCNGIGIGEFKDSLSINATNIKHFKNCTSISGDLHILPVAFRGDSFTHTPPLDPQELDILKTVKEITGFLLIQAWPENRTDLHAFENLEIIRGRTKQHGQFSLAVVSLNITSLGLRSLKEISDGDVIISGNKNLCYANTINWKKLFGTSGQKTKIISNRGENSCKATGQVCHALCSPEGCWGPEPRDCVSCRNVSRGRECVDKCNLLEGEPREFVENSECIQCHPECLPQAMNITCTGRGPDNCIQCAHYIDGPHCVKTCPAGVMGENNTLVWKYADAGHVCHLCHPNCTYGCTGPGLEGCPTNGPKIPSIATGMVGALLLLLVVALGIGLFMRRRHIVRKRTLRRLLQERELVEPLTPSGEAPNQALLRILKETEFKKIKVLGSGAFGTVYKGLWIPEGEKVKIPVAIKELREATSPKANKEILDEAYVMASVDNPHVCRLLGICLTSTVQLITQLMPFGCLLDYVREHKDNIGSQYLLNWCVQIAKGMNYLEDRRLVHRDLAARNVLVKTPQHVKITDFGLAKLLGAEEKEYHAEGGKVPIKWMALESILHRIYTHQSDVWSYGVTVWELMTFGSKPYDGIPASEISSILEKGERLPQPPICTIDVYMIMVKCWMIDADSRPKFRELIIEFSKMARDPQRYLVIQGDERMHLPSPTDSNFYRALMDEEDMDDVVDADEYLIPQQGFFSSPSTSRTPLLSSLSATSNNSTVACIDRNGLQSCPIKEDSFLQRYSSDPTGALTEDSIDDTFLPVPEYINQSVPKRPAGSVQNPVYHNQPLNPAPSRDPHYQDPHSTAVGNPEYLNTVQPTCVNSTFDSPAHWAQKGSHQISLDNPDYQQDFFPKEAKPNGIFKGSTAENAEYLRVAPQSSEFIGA
# Sequence of Tyrosine-protein kinase Lck (P06239 whole entry): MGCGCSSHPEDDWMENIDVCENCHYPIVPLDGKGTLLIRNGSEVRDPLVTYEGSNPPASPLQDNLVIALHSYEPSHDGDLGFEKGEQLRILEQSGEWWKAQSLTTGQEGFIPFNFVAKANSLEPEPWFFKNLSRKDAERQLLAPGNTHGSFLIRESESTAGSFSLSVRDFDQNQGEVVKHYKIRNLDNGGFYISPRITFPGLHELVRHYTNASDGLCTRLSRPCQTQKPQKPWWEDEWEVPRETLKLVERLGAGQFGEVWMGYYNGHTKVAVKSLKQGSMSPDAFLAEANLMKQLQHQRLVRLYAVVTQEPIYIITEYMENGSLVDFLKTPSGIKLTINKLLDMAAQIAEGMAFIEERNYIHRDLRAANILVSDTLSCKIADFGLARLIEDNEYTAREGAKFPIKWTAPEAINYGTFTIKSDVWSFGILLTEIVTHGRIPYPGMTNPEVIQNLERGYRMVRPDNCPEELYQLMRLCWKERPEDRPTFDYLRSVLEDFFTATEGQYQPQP
# Sequence of FKBP12A/mTOR (P62942 2-108 limits assumed, other chains not shown): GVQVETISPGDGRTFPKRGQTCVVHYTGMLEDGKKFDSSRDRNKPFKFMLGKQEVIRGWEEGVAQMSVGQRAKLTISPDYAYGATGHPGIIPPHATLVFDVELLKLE
structure (smiles),measurement,setting,value
CN(C)c1ccc(C(=O)Nc2cccc(NC(=O)COc3ccc4c(=O)ccoc4c3)c2)cc1,IC50,[1],> 10 µM
same,Papp at 1.5 h,[2],9.41 ×10⁻⁶ cm/s
same,"fraction unbound at 5 h, 1 µM",[3],0.002
same,IC50,[4],> 10 µM
same,IC50,[5],> 10 µM
same,IC50,[6],> 10 µM
same,IC50,[7],> 10 µM
same,IC50,[8],> 10 µM
same,IC50,[9],> 10 µM
same,IC50,[10],> 10 µM
same,IC50,[11],> 10 µM
same,IC50,[12],> 10 µM
same,IC50,[13],> 10 µM
same,IC50,Myosin-IIIb,> 10 µM
same,IC50,FKBP12A/mTOR,> 10 µM
same,IC50,[14],> 10 µM
same,IC50,[15],> 10 µM
same,IC50,[16],> 10 µM
same,IC50,[17],> 10 µM
same,IC50,[18],> 10 µM
same,IC50,[19],> 10 µM
same,IC50,[20],> 10 µM
same,IC50,[21],> 10 µM
same,IC50,[22],> 10 µM
same,IC50,[23],> 10 µM
same,IC50,[24],> 10 µM
same,IC50,[25],> 10 µM
